Test results: US8431563B2 (priority 2010, dated 2013)
Where two headings read alike, the source gives them in different places.

What was measured:
[1] = biological target: T1, interaction between glucokinase (GK) and glucokinase regulatory protein (GKRP) (Homo sapiens, UniProt Q14397); test: biochemical; assay type: binding
T1 sequence (Q14397 1-625): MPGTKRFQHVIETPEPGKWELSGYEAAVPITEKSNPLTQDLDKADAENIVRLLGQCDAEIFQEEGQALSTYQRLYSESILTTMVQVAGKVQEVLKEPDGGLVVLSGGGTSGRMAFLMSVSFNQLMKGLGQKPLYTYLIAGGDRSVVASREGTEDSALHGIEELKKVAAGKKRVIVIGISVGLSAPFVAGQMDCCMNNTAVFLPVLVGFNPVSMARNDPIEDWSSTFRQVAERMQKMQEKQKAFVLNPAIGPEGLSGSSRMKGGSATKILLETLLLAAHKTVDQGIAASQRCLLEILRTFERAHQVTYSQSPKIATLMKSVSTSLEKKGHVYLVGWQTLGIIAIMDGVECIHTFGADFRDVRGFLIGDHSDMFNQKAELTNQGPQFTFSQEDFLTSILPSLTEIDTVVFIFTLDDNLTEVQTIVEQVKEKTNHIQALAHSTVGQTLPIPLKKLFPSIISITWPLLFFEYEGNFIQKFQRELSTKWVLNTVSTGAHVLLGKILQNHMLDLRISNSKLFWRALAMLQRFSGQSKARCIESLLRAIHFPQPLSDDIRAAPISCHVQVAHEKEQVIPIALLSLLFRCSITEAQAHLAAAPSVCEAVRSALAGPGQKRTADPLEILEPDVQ
Procedure, shortened: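 Measures direct GK–GKRP binding in 20 mM Tris pH 7.5 containing 1 μM sorbitol-6-phosphate, 0.05% BSA and 1 mM DTT. Compound and avi-tagged GKRP sit 20 min at room temperature before GK-fluorescein addition (6 nM in the added buffer); read after 2 h dark incubation at room temperature.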

[2] = biological target: T2, GKRP (Glucokinase Regulatory Protein) with human His-hepatic GK (Homo sapiens, UniProt Q14397); test: biochemical
T2 sequence (Q14397 1-625): T1 sequence (Q14397 1-625)
Procedure, shortened: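 Product formation, 13C-glucose-6-phosphate from 13C-glucose, was measured directly by LC MS/MS after acetonitrile quench. The GK reaction ran 30 min at room temperature in Tris pH 7.5 buffer with 4 mM MgCl2 and 6% DMSO. The 5× enzyme stock was 30 nM His-tagged human hepatic glucokinase.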

[3] = avi-tagged GKRP, GK-fluorescein, AlphaScreen beads, read-out: GK-GKRP IC50 (Binding)
[4] = 13C-glucose-6-phosphate formation, 280 nM GKRP (10×), 30 nM GK (5×), read-out: GK-GKRP EC50 (LC MS/MS-2)
[5] = read-out: GK-GKRP IC50 (Binding)
[6] = read-out: GK-GKRP EC50 (LC MS/MS-2)

SMILES	IC50 [1, 3] [nM]	EC50 [2, 4] [nM]	other results
CC(O)(c1ccc(N2CCN(S(=O)(=O)c3cccs3)C[C@@H]2CN2[C@@H]3COC[C@H]2CC(=O)C3)cc1)C(F)(F)F (single isomer, unassigned) [Example 106 Peak#2]	61	142	–
CC(O)(c1ccc(N2CCN(S(=O)(=O)c3cccs3)C[C@@H]2CN2CCOC[C@H]2CO)cc1)C(F)(F)F (single isomer, unassigned) [Example 110 Peak #1]	–	–	IC50 ([1]; GK-GKRP IC50 (Binding)): 101 nM; EC50 ([2]; GK-GKRP EC50 (LC MS/MS-2)): 156 nM
CC(O)(c1ccc(N2CCN(S(=O)(=O)c3cccs3)C[C@@H]2CN2CCOC[C@H]2CO)cc1)C(F)(F)F (single isomer, unassigned) [Example 110 Peak #2]	–	–	IC50 [1, 5]: 79 nM; EC50 [2, 6]: 132 nM
CC(O)(c1ccc(N2CCN(S(=O)(=O)c3cccs3)C[C@@H]2CN2CCOC[C@@H]2CO)cc1)C(F)(F)F (single isomer, unassigned) [Example 111 Peak #1]	64	99	–
CC(O)(c1ccc(N2CCN(S(=O)(=O)c3cccs3)C[C@@H]2CN2CCOC[C@@H]2CO)cc1)C(F)(F)F (single isomer, unassigned) [Example 111 Peak #2]	–	–	IC50 [1, 5]: 67 nM; EC50 [2, 6]: 113 nM
CC(O)(c1ccc(N2CCN(S(=O)(=O)c3cccs3)C[C@@H]2CN2CCOCC2CNS(C)(=O)=O)cc1)C(F)(F)F (single isomer, unassigned) [Example 112 Peak #1]	–	–	IC50 [1, 5]: 275 nM; EC50 [2, 6]: 986 nM
CC(O)(c1ccc(N2CCN(S(=O)(=O)c3cccs3)C[C@@H]2CN2CCOCC2CNS(C)(=O)=O)cc1)C(F)(F)F (single isomer, unassigned) [Example 112 Peak #2]	–	–	IC50 ([1]; GK-GKRP IC50 (Binding)): 210 nM; EC50 ([2]; GK-GKRP EC50 (LC MS/MS-2)): 332 nM
CC(O)(c1ccc(N2CCN(S(=O)(=O)c3cccs3)C[C@@H]2CN2CCOCC2c2ccc(F)cc2)cc1)C(F)(F)F (single isomer, unassigned) [Example 115 Peak #1]	589	308	–
Cn1cnc(COC[C@H]2CN(S(=O)(=O)c3cccs3)CCN2c2ccc(C(C)(O)C(F)(F)F)cc2)c1 (single isomer, unassigned) [Example 119 Peak #1]	972	235	–
Cn1cnc(COC[C@H]2CN(S(=O)(=O)c3cccs3)CCN2c2ccc(C(C)(O)C(F)(F)F)cc2)c1 (single isomer, unassigned) [Example 119 Peak #2]	979	206	–
C[C@H]1COCCN1C[C@H]1CN(S(=O)(=O)c2ccc(N)nc2)CCN1c1ccc([C@@](C)(O)C(F)(F)F)cc1 (single isomer, unassigned) [Example 125 Peak #1]	4	26	–
C[C@H]1COCCN1C[C@H]1CN(S(=O)(=O)c2ccc(N)nc2)CCN1c1ccc(C(C)(O)C(F)(F)F)cc1 (single isomer, unassigned) [Example 125 Peak #2]	7	18	–
CC1(C)C(=O)NCCN1C[C@H]1CN(S(=O)(=O)c2cccs2)CCN1c1ccc(C(C)(O)C(F)(F)F)cc1 (single isomer, unassigned) [Example 180 Peak #1]	11	40	–
CC1(C)C(=O)NCCN1C[C@H]1CN(S(=O)(=O)c2cccs2)CCN1c1ccc(C(C)(O)C(F)(F)F)cc1 (single isomer, unassigned) [Example 180 Peak #2]	8	42	–
CC(C)C1C(=O)NCCN1C[C@H]1CN(S(=O)(=O)c2cccs2)CCN1c1ccc(C(C)(O)C(F)(F)F)cc1 (single isomer, unassigned) [Example 181 Peak #1]	43	63	–
CC(C)C1C(=O)NCCN1C[C@H]1CN(S(=O)(=O)c2cccs2)CCN1c1ccc(C(C)(O)C(F)(F)F)cc1 (single isomer, unassigned) [Example 181 Peak #2]	1	14	–
CC(C)C1C(=O)NCCN1C[C@H]1CN(S(=O)(=O)c2ccc(N)s2)CCN1c1ncc(C(O)(C(F)(F)F)C(F)(F)F)cn1 (single isomer, unassigned) [Example 184 Peak #1]	1	12	–
CC(O)(c1ccc(N2CCN(S(=O)(=O)c3cccs3)C[C@@H]2CS(=O)(=O)c2ccccc2)cc1)C(F)(F)F (single isomer, unassigned) [Example 187 Peak#1]	41	49	–
CC(O)(c1ccc(N2CCN(S(=O)(=O)c3cccs3)C[C@@H]2CS(=O)(=O)c2ccccc2)cc1)C(F)(F)F (single isomer, unassigned) [Example 187 Peak#2]	59	52	–
CC(O)(c1ccc(N2CCN(S(=O)(=O)c3cccs3)C[C@@H]2C[S+]([O-])c2ccc(F)cc2)cc1)C(F)(F)F (single isomer, unassigned) [Example 191 Peak#2]	425	252	–
CC(O)(c1ccc(N2CCN(S(=O)(=O)c3cccs3)C[C@@H]2C[S+]([O-])c2ccc(F)cc2)cc1)C(F)(F)F (single isomer, unassigned) [Example 191 Peak#3]	259	262	–
CC(O)(c1ccc(N2CCN(S(=O)(=O)c3cccs3)C[C@@H]2CN2C3COCC2C(O)C3)cc1)C(F)(F)F (single isomer, unassigned; peak #1) [Example 77 Peak #1]	13	38	–
CC(O)(c1ccc(N2CCN(S(=O)(=O)c3cccs3)C[C@@H]2CN2C3COCC2C(O)C3)cc1)C(F)(F)F (single isomer, unassigned; peak #4) [Example 77 Peak #4]	42	65	–
CC(O)(c1ccc(N2CCN(S(=O)(=O)c3cccs3)C[C@@H]2CN2C3COCC2C(O)C3)cc1)C(F)(F)F (stereo partly drawn) [Example 77, 8-(((2S)-4-(2-thiophenylsulfonyl)-1-(4-(2,2,2-trifluoro-1-hydroxy-1-methylethyl)phenyl)-2-piperazinyl)methyl)-3-oxa-8-azabicyclo[3.2.1]octan-6-ol (endo)]	28	31	–
CC(O)(c1ccc(N2CCN(S(=O)(=O)c3cccs3)C[C@@H]2CN2C3COCC2C(O)C3)cc1)C(F)(F)F (stereo partly drawn) [Example 78, 8-(((2S)-4-(2-thiophenylsulfonyl)-1-(4-(2,2,2-trifluoro-1-hydroxy-1-methylethyl)phenyl)-2-piperazinyl)methyl)-3-oxa-8-azabicyclo[3.2.1]octan-6-ol]	42	50	–
O=S(=O)(c1cccs1)N1CCN(c2ncc(C(O)(C(F)(F)F)C(F)(F)F)cn2)[C@@H](CN2C3COCC2C(O)C3)C1 (stereo partly drawn) [Example 79, 8-(((2S)-4-(2-thiophenylsulfonyl)-1-(5-(2,2,2-trifluoro-1-hydroxy-1-(trifluoromethyl)ethyl)-2-pyrimidinyl)-2-piperazinyl)methyl)-3-oxa-8-azabicyclo[3.2.1]octan-6-ol]	39	58	–
O=S(=O)(c1nccs1)N1CCN(c2ncc(C(O)(C(F)(F)F)C(F)(F)F)cn2)[C@@H](CN2C3COCC2C(O)C3)C1 (stereo partly drawn) [Example 81, 8-(((2S)-4-(1,3-thiazol-2-ylsulfonyl)-1-(5-(2,2,2-trifluoro-1-hydroxy-1-(trifluoromethyl)ethyl)-2-pyrimidinyl)-2-piperazinyl)methyl)-3-oxa-8-azabicyclo[3.2.1]octan-6-ol]	177	287	–
